According to article PMC12094946, “Evidence of focusing the MHC class I immunopeptidome by tapasin” (Frontiers in Immunology, 2025):

What was measured:
HLA-B*44:02 = HLA-B*44:02 (Homo sapiens, UniProt P01889, A223V/A65T/A93T/A95T/D201E/D98Y/E176V/E187L/E204Q/E69K/G107R/H137Y/K202T/L105A/L119I/N104T/N87E/Q56L/Q94N/R106L/R155S/R180D/S101N/S121R/S35A/S48T/T118I/V36M/W191S/Y140D/Y91S); experiment: Immunopeptidome analysis (W6/32 isolation, LC-MS/MS) of 721.220 cells reconstituted with human tapasin; format: cell-based; conditions: sheet Overlaps; 1/0 flag; 5% peptide FDR
Procedure: (§1) Approximately 5x10^8 cells were grown for each cell line, and cell pellets were snap frozen. Cell lysis and MHC-I peptide isolation were performed as previously described in detail ([30]). Briefly, cell pellets were lysed by cryomilling and incubation in a non-denaturing lysis buffer (0.5% Igepal CA-630, 50 mM Tris pH 8.0, 150 mM NaCl, 1 x Roche Complete protease inhibitor cocktail). MHC-I complexes were captured from the lysate using 7.5 mg of anti-MHC-I antibody, W6/32, immobilized on protein A Sepharose and subsequently dissociated with 10% acetic acid. The peptides were fractionated and separated from β2m and heavy chain components by reversed-phase high performance liquid chromatography (RP-HPLC). The peptide containing fractions were concentrated and chromatographically distant fractions were combined to generate nine pools, reconstituted in 15 µL 0.1% formic acid containing 500 fmol iRT reference peptides ([31]). Pools were analyzed by liquid chromatography-tandem mass spectrometry (LC-MS/MS) using a SCIEX 5600+ mass spectrometer, equipped with a NanoUltra cHiPLC system (Eksigent) and a Nanospray III ion source. Peptides were trapped on a cHiPLC trap column (3 µm, ChromXP C18CL, 120 Å, 0.5 mm x 200 µm), by loading at 5 µL/min in 0.1% formic acid, 2% acetonitrile, prior to elution over a cHiPLC column (3 µm, ChromXP C18CL, 120 Å, 15 cm x 75 µm) at 300 nL/min with increasing acetonitrile over 75 minutes. The mass spectrometer was operated as follows: ion spray voltage 2400 V, curtain gas 25 l/min, ion source gas 20 l/min, interface heater temperature 150°C, MS1 range 200-1800, MS1 accumulation time 200 ms, MS2 range 60-1800, and MS2 accumulation time 150 ms. The top 20 ions meeting the following criteria were selected for MS/MS fragmentation with rolling collision energy: >200 Da, charge state +2 to +5, >40 cps, dynamic exclusion 30 seconds after two occurrences. Mass spectra were interpreted by database search against the Uniprot/SwissProt ([32]) reviewed human proteome accessed October 2018 using PEAKS Studio XPRO (10.6 build, Bioinformatics Solutions Inc.) and a contaminant database contain the iRT reference peptide sequences using the following parameters: Instrument Triple TOF, fragmentation CID, parent mass error tolerance 25ppm, fragment mass error tolerance 0.1Da, enzyme none, digest mode unspecific, variable modifications Oxidation (M) +15.99 and Deamidation (NQ) +0.98, max variable modifications per peptide 3, False discovery rate (FDR) estimation enabled. A 5% peptide FDR was applied. Peptides identified from similar isolations of MHC class II from closely related 721.221 derived cell lines were excluded from downstream analyses.

HLA-B*44:05-W147A = experiment: as above; format: cell-based; conditions: sheet Overlaps; 1/0 flag; 5% peptide FDR
Procedure: as §1

HLA-B*44:05 = HLA-B*44:05 (Homo sapiens, UniProt P01889, A223V/A65T/A93T/A95T/D201E/D98Y/E176V/E187L/E204Q/E69K/G107R/H137Y/K202T/L105A/L119I/N104T/N87E/Q56L/Q94N/R106L/R155S/R180D/S101N/S121R/S35A/S48T/T118I/V36M/W191S/Y91S); experiment: as above; format: cell-based; conditions: sheet Overlaps; 1/0 flag; 5% peptide FDR
Procedure: as §1

HLA-A*02:01-fos = HLA-A*02:01-fos (Homo sapiens, UniProt P04439, D140Y/D185E/D98H/E176V/E277Q/G131W/G231S/I119V/I121R/I166T/I218V/L300P/L318F/N151K/N90K/P208A/P217A/Q86G/Q94H/R138H/R169H/T345S); experiment: In vitro peptide competition experiments (fluorescence polarization)
Procedure: Peptide competition experiments were prepared in PBS supplemented with 0.5 mg/ml bovine serum albumin (BSA) and a final concentration of 1.67% DMSO. The indicated concentrations of MHC-I molecules were supplemented with 20x excess β2-microglobulin and exposed to 366 nm light for 20 minutes at 4°C. Twenty µl of the UV exposed proteins were added to a 96 well microplate, with each well containing 40 µl of a titration (0 - 83.33 µM) of an unlabeled peptide competitor, 2–3 nM of the appropriate TAMRA labelled peptide, and 300 nM tapasin-jun-ERp57 (HLA-B*44 and HLA-B*35 experiments), or 300 nM TAPBPR (HLA-A*02:01 experiments) or neither tapasin-jun-ERp57 or TAPBPR. Samples were prepared in duplicate and incubated overnight at 25°C.
HLA-B*44:05 and HLA-B*44:05-W147A proteins were used at 160 nM with 2 nM EEFGK*AFSF peptide. HLA-B*35:01-fos and HLA-B*35:03-fos proteins were used at 225 nM with 3 nM YPLK*EQHGM peptide.
Fluorescence polarization measurements were taken using an I3x (Molecular Devices) with rhodamine detection cartridge.

Row | Substance | B4402 (peptide identified in immunopeptidome) (HLA-B*44:02) | B4405 W147A (peptide identified in immunopeptidome) (HLA-B*44:05-W147A) | B4405 (peptide identified in immunopeptidome) (HLA-B*44:05) | fold lower than unlabeled FLPSDCFPSV (HLA-A*02:01-fos; index peptide IC50 compared with IC50 of unlabeled FLPSDCFPSV) | IC50 value of the index peptide (HLA-A*02:01-fos; suggested by the divergent effects of TAPBPR on the ability of peptides to compete for binding to HLA-A*02:01)
1 | AEDALHNLDRKW [peptide identified within the immunopeptidomes] | 1 | 0 | 1 | – | –
2 | AEIGEGAYGKVF [peptide identified within the immunopeptidomes] | 1 | 0 | 1 | – | –
3 | AEMDGAAAAKQVM [peptide identified within the immunopeptidomes] | 1 | 0 | 1 | – | –
4 | EEVDLSKDIQHW [peptide identified within the immunopeptidomes] | 1 | 0 | 1 | – | –
5 | FLPSDC^TAMRAFPSV | – | – | – | approximately 20 fold | around 3 µM
6 | SELALESQTKTY [peptide identified within the HLA-B*44:02 immunopeptidome] | 1 | 0 | 0 | – | –
